Reference: US20240150356A1, “Pyrimidine amide compounds and use thereof” (ALPHALA CO., LTD., priority 2019, published 2024)

tested on: Hep3B cells (hepatocellular carcinoma cell line); experiment: In vitro MTS cell viability assay (NCI-60 methodology), Hep3B; assay type: cell-based; conditions: Homo sapiens, 48 h, Table 1, MTS, 2 days drug incubation, 50% reduction vs time zero, read-out: Hep3B LC50
Procedure, shortened: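 Hep3B cells given five 2-fold dilutions of compound for 2 days, with viability by MTS measured at time zero and at end. LC50 is the concentration giving a 50% fall in viable cells relative to the start of treatment, per NCI-60 formula.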

First: CCC(C)(C)c1ccc(-c2nc(NC(=O)c3ccc([N+](=O)[O-])s3)c3cnn(C)c3n2)cc1 [Compound 1-9, N-(1-methyl-6-(4-(tert-pentyl)phenyl)-1H-pyrazolo[3,4-d]pyrimidin-4-yl)-5-nitrothiophene-2-carboxamide]
Second: CCOc1ccc(-c2nc(NC(=O)c3ccc([N+](=O)[O-])s3)c3cnn(C)c3n2)cc1 [Compound 1-2, N-(6-(4-ethoxyphenyl)-1-methyl-1H-pyrazolo[3,4-d]pyrimidin-4-yl)-5-nitrothiophene-2-carboxamide]
The LC50 of the first is 2.2-fold lower: 1500 nM for the first, 3240 nM for the second.

Compared with `CC(C)(C)c1ccc(-c2nc(NC(=O)c3ccc([N+](=O)[O-])s3)c3cnn(C(C)(C)C)c3n2)cc1` [Compound 1-25, N-(1-(tert-butyl)-6-(4-(tert-butyl)phenyl)-1H-pyrazolo[3,4,d]pyrimidin-4-yl)-5-nitrothiophene-2-carboxamide], `O=C(Nc1nc(-c2ccc(OC(F)(F)F)cc2)nc2c1cnn2CCN1CCOCC1)c1ccc([N+](=O)[O-])s1` [Compound 1-30, N-(1-(2-morpholinoethyl)-6-(4-(trifluoromethoxy)phenyl)-1H-pyrazolo[3,4-d]pyrimidin-4-yl)-5-nitrothiophene-2-carboxamide] is 2.4-fold lower in LC50: 4110 nM for the first, 1700 nM for the second.

same assay, conditions: Homo sapiens, 48 h, Table 3, MTS, 2 days drug incubation, 50% reduction vs time zero, read-out: Hep3B LC50

Molecule `CCn1cc2nc(-c3ccc(C(C)(C)C)cc3)nc(NC(=O)c3ccc([N+](=O)[O-])s3)c2c1` [Compound 3-11, N-(2-(4-(tert-butyl)phenyl)-6-ethyl-6H-pyrrolo[3,4-d]pyrimidin-4-yl)-5-nitrothiophene-2-carboxamide] has an LC50 of 7640 nM.

same assay, conditions: Homo sapiens, 48 h, Table 4, MTS, 2 days drug incubation, 50% reduction vs time zero, read-out: Hep3B LC50

`Cc1csc2c(NC(=O)c3ccc([N+](=O)[O-])s3)nc(-c3ccc(OC(F)(F)F)cc3)nc12` [Compound 4-4, N-(7-methyl-2-(4-(trifluoromethoxy)phenyl)thieno[3,2-d]pyrimidin-4-yl)-5-nitrothiophene-2-carboxamide] and `CC(C)(C)c1ccc(-c2csc3c(NC(=O)c4ccc([N+](=O)[O-])s4)nc(-c4ccc(F)cc4)nc23)cc1` [Compound 4-19, N-(7-(4-(tert-butyl)phenyl)-2-(4-fluorophenyl)thieno[3,2-d]pyrimidin-4-yl)-5-nitrothiophene-2-carboxamide] are within 1.5-fold of each other in LC50: 890 nM for the first, 670 nM for the second.

same assay, conditions: Homo sapiens, 48 h, Table 5, MTS, 2 days drug incubation, 50% reduction vs time zero, read-out: Hep3B LC50

First: O=C(Nc1nc(N2CCOCC2)nc2c1cnn2-c1ccccc1)c1ccc([N+](=O)[O-])s1 [Compound 5-7, N-(6-morpholino-1-phenyl-1H-pyrazolo[3,4-d]pyrimidin-4-yl)-5-nitrothiophene-2-carboxamide]
Second: CN(C)CCOc1nc(NC(=O)c2ccc([N+](=O)[O-])s2)c2cnn(-c3ccccc3)c2n1 [Compound 5-11, N-(6-(2-(dimethylamino)ethoxy)-1-phenyl-1H-pyrazolo[3,4-d]pyrimidin-4-yl)-5-nitrothiophene-2-carboxamide]
The LC50 of the first is 2.8-fold lower: 1460 nM for the first, 4130 nM for the second.

`COc1ccc(-c2nc(NC(=O)c3ccc([N+](=O)[O-])s3)c3cnn(-c4ccccc4)c3n2)cc1` [Compound 5-36, N-(6-(4-methoxyphenyl)-1-phenyl-1H-pyrazolo[3,4-d]pyrimidin-4-yl)-5-nitrothiophene-2-carboxamide] gave an LC50 of 600 nM.

same assay, conditions: Homo sapiens, 48 h, Table 6, MTS, 2 days drug incubation, 50% reduction vs time zero, read-out: Hep3B LC50

`O=C(Nc1nc(-c2ccc(OC(F)(F)F)cc2)nc2c1cnn2-c1ccc(F)cc1)c1ccc([N+](=O)[O-])s1` [Compound 6-123, N-(1-(4-fluorophenyl)-6-(4-(trifluoromethoxy)phenyl)-1H-pyrazolo[3,4d]pyrimidin-4-yl)-5-nitrothiophene-2-carboxamide] and `O=C(Nc1nc(-c2ccc(C(F)(F)F)cc2)nc2c1cnn2-c1ccc(OC(F)(F)F)cc1)c1ccc([N+](=O)[O-])s1` [Compound 6-88, 5-nitro-N-(1-(4-(trifluoromethoxy)phenyl)-6-(4-(trifluormethyl)phenyl)-1H-pyrazolo[3,4-d]pyrimidin-4-yl)thiophene-2-carboxamide] are within 1.5-fold of each other in LC50: 340 nM for the first, 420 nM for the second.

Compared with `CCOCCOc1ccc(-c2nc(NC(=O)c3ccc([N+](=O)[O-])s3)c3cnn(-c4ccc(F)cc4)c3n2)cn1` [Compound 6-136, N-(6-(6-(2-ethoxyethoxy)pyridin-3-yl)-1-(4-fluorophenyl)-1H-pyrazolo[3,4-d]pyrimidin-4-yl)-5-nitrothiophene-2-carboxamide], `CCOCCOCCOc1ccc(-c2nc(NC(=O)c3ccc([N+](=O)[O-])s3)c3cnn(-c4ccc(C(C)(C)C)cc4)c3n2)cn1` [Compound 6-83, N-(1-(4-(ter-butyl)phenyl)-6-(6-(2-(2-ethoxyethoxy)ethoxy)pyridin-3-yl)-1H-pyrazolo[3,4-d]pyrimidin-4-yl)-5-nitrothiophene-2-carboxamide] is 1.6-fold higher in LC50: 260 nM for the first, 410 nM for the second.

Compared with `CC(C)(C)c1ccc(-n2ncc3c(NC(=O)c4ccc([N+](=O)[O-])s4)nc(N4CCC[C@H]4C(=O)O)nc32)cc1` [Compound 6-70, (1-(4-(tert-butyl)phenyl)-4-(5-nitrothiophene-2-carboxamido)-1H-pyrazolo[3,4-d]pyrimidin-6-yl)-L-proline], `CC(C)(C)c1ccc(-n2ncc3c(NC(=O)c4ccc([N+](=O)[O-])s4)nc(N4CCCC4)nc32)cc1` [Compound 6-62, N-(1-(4-(tert-butyl)phenyl)-6-(pyrrolidin-1-yl)-1H-pyrazolo[3,4-d]pyrimidin-4-yl)-5-nitrothiophene-2-carboxamide] is lower in LC50: greater than 1250 nM for the first, 710 nM for the second.

`COc1ccc(-c2nc(NC(=O)c3ccc([N+](=O)[O-])s3)c3cnn(-c4ccc(C(C)(C)C)cc4)c3n2)cn1` [Compound 6-82, N-(1-(4-(tert-butyl)phenyl)-6-(6-methoxypyridin-3-yl)-1H-pyrazolo[3,4-d]pyrimidin-4-yl)-5-nitrothiophene-2-carboxamide] and `COCCN(C)c1ccc(-c2nc(NC(=O)c3ccc([N+](=O)[O-])s3)c3cnn(-c4ccc(F)cc4)c3n2)cn1` [Compound 6-131, N-(1-(4-fluorophenyl)-6-(6-((2-methoxyethyl)(methyl)amino)pyridin-3-yl)-1H-pyrazolo[3,4-d]pyrimidin-4-yl)-5-nitrothiophene-2-carboxamide] are within 1.5-fold of each other in LC50: 380 nM for the first, 370 nM for the second.

Compared with `O=C(Nc1nc(-c2ccc(Cl)cc2)nc2c1cnn2-c1cccc(F)c1)c1ccc([N+](=O)[O-])s1` [Compound 6-91, N-(6-(4-chlorophenyl)-1-(3-fluorophenyl)-1H-pyrazolo[3,4-d]pyrimidin-4-yl)-5-nitrothiophene-2-carboxamide], `Cc1ccccc1-n1ncc2c(NC(=O)c3ccc([N+](=O)[O-])s3)nc(N3CCC[C@H]3CO)nc21` [Compound 6-1, (S)—N-(6-(2-(hydroxymethyl)pyrrolidin-1-yl)-1-(o-tolyl)-1H-pyrazolo[3,4-d]pyrimidin-4-yl)-5-nitrothiophene-2-carboxamide] is higher in LC50: 180 nM for the first, greater than 3000 nM for the second.

same assay, conditions: Homo sapiens, 48 h, Table 7, MTS, 2 days drug incubation, 50% reduction vs time zero, read-out: Hep3B LC50

First: O=C(Nc1nc(-c2ccc(F)nc2)nc2c1cnn2-c1ccc(Cl)cc1Cl)c1ccc([N+](=O)[O-])s1 [Compound 7-10]
Second: O=C(Nc1nc(-c2ccc(OC(F)(F)F)cc2)nc2c1cnn2-c1ccc(C(F)(F)F)cn1)c1ccc([N+](=O)[O-])s1 [Compound 7-5, 5-nitro-N-(6-(4-(trifluoromethoxy)phenyl)-1-(5-(trifluoromethyl)pyridin-2-yl)-1H-pyrazolo[3,4-d]pyrimidin-4-yl)thiophene-2-carboxamide]
The LC50 of the first is higher: greater than 1250 nM for the first, 310 nM for the second.

same assay, conditions: Homo sapiens, 48 h, Table 8, MTS, 2 days drug incubation, 50% reduction vs time zero, read-out: Hep3B LC50

First: C=CC(=O)N1CC[C@H](n2ncc3c(NC(=O)c4ccc([N+](=O)[O-])s4)nc(-c4ccc(F)nc4)nc32)C1 [Compound 8-3, (S)—N-(1-(1-acryloylpyrrolidin-3-yl)-6-(6-fluoropyridin-3-yl)-1H-pyrazolo[3,4-d]pyrimidin-4-yl)-5-nitrothiophene-2-carboxamide]
Second: CC(C)(C)C(=O)N1CC[C@H](n2ncc3c(NC(=O)c4ccc([N+](=O)[O-])s4)nc(-c4ccc(F)nc4)nc32)C1 [Compound 8-4, (S)—N-(6-(6-fluoropyridin-3-yl)-1-(1-pivaloylpyrrolidin-3-yl)-1H-pyrazolo[3,4-d]pyrimidin-4-yl)-5-nitrothiophene-2-carboxamide]
The LC50 of the first is higher: greater than 3000 nM for the first, 1490 nM for the second.

`O=C(Nc1nc(-c2ccc(Cl)cc2)nc2c1cnn2C1CCCC1)c1ccc([N+](=O)[O-])s1` [Compound 8-9, N-(6-(4-chlorophenyl)-1-cyclopentyl-1H-pyrazolo[3,4-d]pyrimidin-4-yl)-5-nitrothiophene-2-carboxamide] and `O=C(Nc1nc(-c2ccc(F)nc2)nc2c1cnn2C1CCCC1)c1ccc([N+](=O)[O-])s1` [Compound 8-8, N-(1-cyclopentyl-6-(6-fluoropyridin-3-yl)-1H-pyrazolo[3,4-d]pyrimidin-4-yl)-5-nitrothiophene-2-carboxamide] are within 1.5-fold of each other in LC50: 940 nM for the first, 1170 nM for the second.

same assay, conditions: Homo sapiens, 48 h, Table 10, MTS, 2 days drug incubation, 50% reduction vs time zero, read-out: Hep3B LC50

`CC1CC(C)CC(n2ncc3c(NC(=O)c4ccc([N+](=O)[O-])s4)nc(-c4ccc(Cl)nc4)nc32)C1` (centres unmarked) [Compound 10-70, N-(6-(6-chloropyridin-3-yl)-1-(3,5-dimethylcyclohexyl)-1H-pyrazolo[3,4-d]pyrimidin-4-yl)-5-nitrothiophene-2-carboxamide] and `CC1CC(C)CC(n2ncc3c(NC(=O)c4ccc([N+](=O)[O-])s4)nc(-c4ccc(Cl)cc4)nc32)C1` (centres unmarked) [Compound 10-69, N-(6-(4-chlorophenyl)-1-(3,5-dimethylcyclohexyl)-1H-pyrazolo[3,4-d]pyrimidin-4-yl)-5-nitrothiophene-2-carboxamide] are within 1.5-fold of each other in LC50: 960 nM for the first, 860 nM for the second.

With `O=C(Nc1nc(-c2cccs2)nc2c1cnn2C1CCCCC1)c1ccc([N+](=O)[O-])s1` [Compound 10-5, N-(1-cyclohexyl-6-(thiophen-2-yl)-1H-pyrazolo[3,4-d]pyrimidin-4-yl)-5-nitrothiophene-2-carboxamide] the LC50 was 750 nM.
